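Dose response: 5 concentrations. Exposure: 48 h. Format: 96-well plates. Endpoint: linear interpolation; highest concentration if not reached. GI50: concentration for 50% inhibition of growth.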 Activity calls are given as the source filed them. No stated cut-off is given here; in the data, active = GI50 up to about 1.1 µM and inactive = higher.
Assays:
Assay in all cases: NCI-60 cell line screen, 48 h
SNB-75 = system: SNB-75
NCI-H460 = system: NCI-H460
UACC-257 = system: UACC-257
MOLT-4 = system: MOLT-4
SW-620 = system: SW-620
HCC 2998 = system: HCC 2998
KM12 = system: KM12
TK-10 = system: TK-10
SN12C = system: SN12C
HCT-15 = system: HCT-15
DU-145 = system: DU-145
SK-OV-3 = system: SK-OV-3
SF-268 = system: SF-268
EKVX = system: EKVX
OVCAR-5 = system: OVCAR-5
HOP-62 = system: HOP-62
HCT-116 = system: HCT-116
SF-295 = system: SF-295
RXF 393 = system: RXF 393
NCI-H23 = system: NCI-H23

Structure (SMILES)	GI50 (SNB-75)	GI50 (NCI-H460)	GI50 (UACC-257)	GI50 (MOLT-4)	GI50 (SW-620)	GI50 (HCC 2998)	GI50 (KM12)	GI50 (TK-10)	GI50 (SN12C)	GI50 (HCT-15)	GI50 (DU-145)	GI50 (SK-OV-3)	GI50 (SF-268)	GI50 (EKVX)	GI50 (OVCAR-5)	GI50 (HOP-62)	GI50 (HCT-116)	GI50 (SF-295)	GI50 (RXF 393)	GI50 (NCI-H23)
CCCCCCCCCCC[N+]1(Cc2ccccc2)CC2CCN(Cc3ccccc3)CC2C1 (stereo not drawn)	1.15 µM (inactive)	1.29 µM (inactive)	0.288 µM (active)	0.199 µM (active)	0.381 µM (active)	0.649 µM (active)	0.247 µM (active)	1.29 µM (inactive)	0.327 µM (active)	1.52 µM	0.47 µM (active)	1.75 µM (inactive)	0.555 µM (active)	0.323 µM (active)	1.55 µM (inactive)	0.818 µM (active)	0.284 µM (active)	1.09 µM (active)	0.587 µM (active)	0.181 µM (active)
CC(CO)CCNc1ncnc2c1ncn2CCC(=O)OC(C)(C)C (stereo not drawn)	> 100 µM (inactive)	> 100 µM (inactive)	> 100 µM (inactive)	> 100 µM (inactive)	> 100 µM (inactive)	> 100 µM (inactive)	> 100 µM (inactive)	> 100 µM (inactive)	> 100 µM (inactive)	–	> 100 µM (inactive)	> 100 µM (inactive)	> 100 µM (inactive)	> 100 µM (inactive)	> 100 µM (inactive)	> 100 µM (inactive)	> 100 µM (inactive)	> 100 µM (inactive)	> 100 µM (inactive)	> 100 µM (inactive)
O=C/C(=C(/Cl)c1ccc(O)cc1)c1ccccc1	15.3 µM (inactive)	33.2 µM (inactive)	31.2 µM (inactive)	16.6 µM (inactive)	27.6 µM (inactive)	71.9 µM (inactive)	35.6 µM (inactive)	29 µM (inactive)	24.6 µM (inactive)	16.1 µM	62.5 µM (inactive)	26.5 µM (inactive)	25 µM (inactive)	28.2 µM (inactive)	> 100 µM (inactive)	–	18.1 µM (inactive)	33.3 µM (inactive)	21.6 µM (inactive)	24.4 µM (inactive)
